Measurements from ChEMBL document CHEMBL4196087 (Eur J Med Chem, 2018).
≈ marks a conversion by molar mass, not a printed value.

Tests used:
IGROV-1 = test: Growth inhibition of human IGROV1 cells at 10^-5 M incubated for 48 hrs by sulforhodamine B assay relative to control; assay type: functional; settings: IGROV-1, 48 h, read-out: GI
T47D = test: Growth inhibition of human T47D cells at 10^-5 M incubated for 48 hrs by sulforhodamine B assay relative to control; assay type: functional; settings: read-out: GI
HL-60 [1] = test: Antiproliferative activity against human HL60 cells after 48 hrs by SRB assay; assay type: functional; settings: HL-60, 48 h, read-out: LC50 (the source's name)
LOX IMVI = test: Growth inhibition of human LOXIMVI cells at 10^-5 M incubated for 48 hrs by sulforhodamine B assay relative to control; assay type: functional; settings: read-out: GI
MDA-MB-231 = test: Growth inhibition of human MDA-MB-231 cells at 10^-5 M incubated for 48 hrs by sulforhodamine B assay relative to control; assay type: functional; settings: MDA-MB-231, 48 h, read-out: GI
Pseudomonas aeruginosa [2] = test: Antibacterial activity against Pseudomonas aeruginosa at 37 degC measured after 24 hrs by agar disc diffusion method; assay type: functional
Pseudomonas aeruginosa [3] = test: Antibacterial activity against Pseudomonas aeruginosa at 37 degC measured after 24 hrs by CLSI M7-A4 protocol based method; assay type: functional
SNB-75 = test: Growth inhibition of human SNB75 cells at 10^-5 M incubated for 48 hrs by sulforhodamine B assay relative to control; assay type: functional; settings: SNB-75, 48 h, read-out: GI
UO-31 = test: Growth inhibition of human UO31 cells at 10^-5 M incubated for 48 hrs by sulforhodamine B assay relative to control; assay type: functional; settings: UO-31, 48 h, read-out: GI
SF-539 = test: Growth inhibition of human SF539 cells at 10^-5 M incubated for 48 hrs by sulforhodamine B assay relative to control; assay type: functional; settings: SF-539, 48 h, read-out: GI
MOLT-4 = test: Growth inhibition of human MOLT4 cells at 10^-5 M incubated for 48 hrs by sulforhodamine B assay relative to control; assay type: functional; settings: MOLT-4, 48 h, read-out: GI
HL-60 [4] = test: Potency index, ratio of doxorubicin IC50 to compound IC50 for antiproliferative activity against human HL60 cells; assay type: functional
HL-60 [5] = test: Antiproliferative activity against human HL60 cells after 48 hrs by MTT assay; assay type: functional, cell-based; settings: HL-60, 48 h
HOP-62 = test: Growth inhibition of human HOP62 cells at 10^-5 M incubated for 48 hrs by sulforhodamine B assay relative to control; assay type: functional; settings: HOP-62, 48 h, read-out: GI
A498 = test: Growth inhibition of human A498 cells at 10^-5 M incubated for 48 hrs by sulforhodamine B assay relative to control; assay type: functional; settings: A498, 48 h, read-out: GI
HOP-92 = test: Growth inhibition of human HOP92 cells at 10^-5 M incubated for 48 hrs by sulforhodamine B assay relative to control; assay type: functional; settings: HOP-92, 48 h, read-out: GI
K562 = test: Growth inhibition of human K562 cells at 10^-5 M incubated for 48 hrs by sulforhodamine B assay relative to control; assay type: functional; settings: K562, 48 h, read-out: GI
PC-3 = test: Growth inhibition of human PC3 cells at 10^-5 M incubated for 48 hrs by sulforhodamine B assay relative to control; assay type: functional; settings: PC-3, 48 h, read-out: GI
CCRF-CEM = test: Growth inhibition of human CCRF-CEM cells at 10^-5 M incubated for 48 hrs by sulforhodamine B assay relative to control; assay type: functional; settings: read-out: GI
Staphylococcus aureus = test: Antibacterial activity against Staphylococcus aureus at 37 degC measured after 24 hrs by agar disc diffusion method; assay type: functional
MDA-MB-468 = test: Growth inhibition of human MDA-MB-468 cells at 10^-5 M incubated for 48 hrs by sulforhodamine B assay relative to control; assay type: functional; settings: MDA-MB-468, 48 h, read-out: GI
HL-60(TB) = test: Growth inhibition of human HL-60(TB) cells at 10^-5 M incubated for 48 hrs by sulforhodamine B assay relative to control; assay type: functional; settings: HL-60, 48 h, read-out: GI
Bacillus subtilis [6] = test: Antibacterial activity against Bacillus subtilis at 37 degC measured after 24 hrs by agar disc diffusion method; assay type: functional
SK-MEL-5 = test: Growth inhibition of human SK-MEL-5 cells at 10^-5 M incubated for 48 hrs by sulforhodamine B assay relative to control; assay type: functional; settings: SK-MEL-5, 48 h, read-out: GI
MCF7 = test: Growth inhibition of human MCF7 cells at 10^-5 M incubated for 48 hrs by sulforhodamine B assay relative to control; assay type: functional; settings: MCF7, 48 h, read-out: GI
RPMI-8226 = test: Growth inhibition of human RPMI8226 cells at 10^-5 M incubated for 48 hrs by sulforhodamine B assay relative to control; assay type: functional; settings: RPMI-8226, 48 h, read-out: GI
NCI-H226 = test: Growth inhibition of human NCI-H226 cells at 10^-5 M incubated for 48 hrs by sulforhodamine B assay relative to control; assay type: functional; settings: NCI-H226, 48 h, read-out: GI
Escherichia coli = test: Antibacterial activity against Escherichia coli at 37 degC measured after 24 hrs by agar disc diffusion method; assay type: functional
Bacillus subtilis [7] = test: Antibacterial activity against Bacillus subtilis at 37 degC measured after 24 hrs by CLSI M7-A4 protocol based method; assay type: functional
SK-OV-3 = test: Growth inhibition of human SKOV3 cells at 10^-5 M incubated for 48 hrs by sulforhodamine B assay relative to control; assay type: functional; settings: SK-OV-3, 48 h, read-out: GI

Row | SMILES | inhibition of growth at 10 µM (T47D) | inhibition of growth at 10 µM (LOX IMVI) | diameter of the inhibition zone (DIZ) (Pseudomonas aeruginosa [2]) | inhibition of growth at 10 µM (UO-31) | inhibition of growth at 10 µM (MOLT-4) | inhibition of growth at 10 µM (HOP-62) | inhibition of growth at 10 µM (HOP-92) | inhibition of growth at 10 µM (PC-3) | diameter of the inhibition zone (DIZ) (Staphylococcus aureus) | diameter of the inhibition zone (DIZ) (Bacillus subtilis [6]) | diameter of the inhibition zone (DIZ) (Escherichia coli) | inhibition of growth at 10 µM (SK-OV-3) | other results
1 | O=C(CN1CCN(c2cc3c(cc2F)c(=O)c(C(=O)O)cn3C2CC2)CC1)N/N=C/c1c[nH]c2ccccc12 | < 20% | < 20% | 33 mm | 28.3% | 24.6% | < 20% | < 20% | < 20% | 31 mm | 37 mm | 31 mm | – | inhibition of growth at 10 µM (IGROV-1): < 20%; CC50 (HL-60 [1]): 15.9 µM; inhibition of growth at 10 µM (MDA-MB-231): 20.9%; MIC (Pseudomonas aeruginosa [3]): 30 µg/mL (≈ 56.5 µM); inhibition of growth at 10 µM (SNB-75): < 20%; inhibition of growth at 10 µM (SF-539): < 20%; Ratio IC50 (HL-60 [4]): 5.7; IC50 (HL-60 [5]): 1.55 µM; inhibition of growth at 10 µM (A498): < 20%; inhibition of growth at 10 µM (K562): < 20%; inhibition of growth at 10 µM (CCRF-CEM): 54.4%; inhibition of growth at 10 µM (MDA-MB-468): < 20%; inhibition of growth at 10 µM (HL-60(TB)): 43%; inhibition of growth at 10 µM (SK-MEL-5): < 20%; inhibition of growth at 10 µM (MCF7): 27.1%; inhibition of growth at 10 µM (RPMI-8226): < 20%; inhibition of growth at 10 µM (NCI-H226): < 20%; MIC (Bacillus subtilis [7]): 58 µg/mL (≈ 109 µM)
2 | O=C(O)c1cn(C2CC2)c2cc(N3CCN(Cc4nnc(S)o4)CC3)c(F)cc2c1=O | < 20% | < 20% | 27 mm | < 20% | 23% | < 20% | < 20% | 23.4% | 24 mm | 29 mm | 25 mm | < 20% | –
3 | CSc1nnc(CN2CCN(c3cc4c(cc3F)c(=O)c(C(=O)O)cn4C3CC3)CC2)o1 | 21.1% | < 20% | – | < 20% | < 20% | < 20% | < 20% | 24.9% | – | – | – | < 20% | –
